Publication PMC11903733 (Frontiers in Pharmacology, 2025)

What was measured:
BTK = BTK (Homo sapiens, UniProt Q06187); experiment: SelectScreen kinase profiling; assay type: biochemical
Description: (§1) The kinase selectivity analysis of LTM-1 was performed utilizing the SelectScreen Kinase Profiling Service offered by Thermo Fisher Scientific. In a dose-response assay featuring a ten-point dilution series from 0.25 μM to 128 μM, the inhibitory effects of LTM-1 on substrate phosphorylation reactions catalyzed by a panel of kinases were assessed. Consequently, the half-maximal inhibitory concentrations (IC50 values) for each kinase were determined.

MET = MET (Homo sapiens, UniProt P08581); experiment: SelectScreen kinase profiling; assay type: biochemical
Description: as §1

LTK = LTK (Homo sapiens, UniProt P29376); experiment: SelectScreen kinase profiling; assay type: biochemical
Description: as §1

ABL1 = ABL1 (Homo sapiens, UniProt P00519); experiment: SelectScreen kinase profiling; assay type: biochemical
Description: as §1

PDGFRB = PDGFRB (Homo sapiens, UniProt P09619); experiment: SelectScreen kinase profiling; assay type: biochemical
Description: as §1

NTRK2 = NTRK2 (Homo sapiens, UniProt Q16620); experiment: SelectScreen kinase profiling; assay type: biochemical
Description: as §1

CDK1 = CDK1 (Homo sapiens, UniProt P06493); experiment: SelectScreen kinase profiling; assay type: biochemical
Description: as §1

LSD2 = target: T1, LSD2 (Homo sapiens, UniProt Q8NB78); experiment: Lance Ultra demethylase TR-FRET enzyme inhibition assay, LSD2; assay type: biochemical; settings: full-length LSD2 172 nM, Bio-H3K4me2 substrate, 1 h, mean ± SD, n = 3
T1 construct: full-length LSD2; by word order LSD2 from ActiveMotif
T1 sequence (Q8NB78 1-822): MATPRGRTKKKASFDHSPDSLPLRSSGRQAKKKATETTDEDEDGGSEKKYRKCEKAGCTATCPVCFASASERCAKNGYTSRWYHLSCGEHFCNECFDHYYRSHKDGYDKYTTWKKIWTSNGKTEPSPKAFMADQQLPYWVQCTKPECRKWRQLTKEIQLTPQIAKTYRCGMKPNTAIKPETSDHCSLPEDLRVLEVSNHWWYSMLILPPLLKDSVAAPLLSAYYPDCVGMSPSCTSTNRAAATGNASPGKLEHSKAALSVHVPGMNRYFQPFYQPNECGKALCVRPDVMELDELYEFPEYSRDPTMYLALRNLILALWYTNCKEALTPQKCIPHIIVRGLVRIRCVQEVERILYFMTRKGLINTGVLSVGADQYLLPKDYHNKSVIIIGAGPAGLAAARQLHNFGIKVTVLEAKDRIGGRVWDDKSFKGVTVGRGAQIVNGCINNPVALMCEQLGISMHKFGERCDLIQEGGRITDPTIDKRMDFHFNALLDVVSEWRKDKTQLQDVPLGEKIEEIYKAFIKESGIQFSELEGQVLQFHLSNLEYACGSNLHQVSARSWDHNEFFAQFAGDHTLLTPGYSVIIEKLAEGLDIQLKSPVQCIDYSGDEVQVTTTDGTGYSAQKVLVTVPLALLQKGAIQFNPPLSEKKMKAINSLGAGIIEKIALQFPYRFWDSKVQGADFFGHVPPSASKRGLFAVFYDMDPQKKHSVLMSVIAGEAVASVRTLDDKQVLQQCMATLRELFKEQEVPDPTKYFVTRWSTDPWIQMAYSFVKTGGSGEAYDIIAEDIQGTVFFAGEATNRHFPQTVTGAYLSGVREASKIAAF
Description: These were utilized in both in vitro and in vivo assays. Iscove’s Modified Dulbecco’s Medium (IMDM), Roswell Park Memorial Institute (RPMI)-1640 medium, fetal bovine serum (FBS) and penicillin/streptomycin were purchased from Gibco (Grand Island, New Nork, United States). Recombinant human LSD1 (172–852 aa) and full-length LSD2 were obtained from Sino Biological Inc. and ActiveMotif.
The inhibitory effects of the tested compounds on LSD1 and LSD2 enzymes were methodically assessed using the Lance Ultra LSD1 Histone H3-Lysine 4 Demethylase Assay Kit from PerkinElmer, adhering to previously published methodologies ([Li et al., 2022]). In brief, the reaction was initiated by adding 4 μL of enzyme solution, with concentrations specified at 2 nM for LSD1 or 172 nM for LSD2, 4 μL of substrate solution [2.5 μM Bio-H3K4me2 ([…])], and 2 μL of tested compound to a Tris buffer (50 mM Tris-HCl, 50 mM NaCl, 0.01% Tween 20, 1 mM DTT, 10 μM FAD, 10% glycerol, pH 9.0) at room temperature and incubated for 1 h. Following the incubation, 5 μL of a detection mixture, comprising an Eu-labeled H3K4me0 antibody and ULight Streptavidin, was added to the reaction. The fluorescence intensity was then measured employing TR-FRET mode with excitation and emission wavelengths set at 320 nm and 665 nm, respectively, utilizing the Envision (PerkinElmer) system. Each experiment was performed in triplicate.

MV-4-11 cells = experiment: MTS cell proliferation assay; assay type: cell-based; settings: Homo sapiens, MV4-11, LSD1-addicted MV-4-11 leukemia cells, 72 h
Description: (§2) The myeloid leukemia cell lines MV-4-11, MOLT-4, MOLM-16, HL-60, and the human B lymphocyte cell line […] were purchased from the American Type Culture Collection (ATCC, Manassas, VA, United States). The myeloid leukemia cell line HAL-01 was obtained from the Deutsche Sammlung von Mikroorganismen und Zellkulturen GmbH (DSMZ, Braunschweig, Germany). All cells were cultured in IMDM or RPMI -1640 medium supplemented with 10% FBS, 100 U/mL penicillin, and 100 μg/mL streptomycin. The cells were maintained in a humidified incubator with an atmosphere of 5% CO2 at 37°C.
(§3) The in vitro anti-proliferative activity of the compounds was determined using the CellTiter 96® AQueous NonRadioactive Cell Proliferation Assay Kit (Promega, Madison, United States) as previously described ([Ji et al., 2017]). In brief, 5–10 × 10^3 cells and 180 μL of medium were first seeded into each well of a 96-well plate. Subsequently, the cells were exposed to either 0.2% Dimethyl sulfoxide (DMSO, Aladdin Reagent, Shanghai, China) or a serial dilution of the compounds, prepared from a 10 mM stock solution in DMSO, with the final concentration of DMSO being 0.2% for 72 h. 20 μL of MTS reagent was added to each well, and the culture was incubated in the dark at 37°C for 4 h. Finally, the optical density (OD) was then recorded at 490 nm and 690 nm using a microplate reader from Molecular Devices. The proliferation inhibition rate was calculated according to the following formula: inhibition ratio = (OD of DMSO treated wells - OD of compound treated wells)/(OD of DMSO treated wells - OD of blank wells) × 100%. The IC50 values of the compounds inhibiting cell proliferation were calculated using GraphPad Prism 10 (GraphPad Software Inc., San Diego, CA).

RPMI-8226 cells = experiment: MTS cell proliferation assay; assay type: cell-based; settings: Homo sapiens, LSD1-non-sensitive RPMI-8226 cells, 72 h
Description: as §2, §3

PDGFRB, sequence (P09619 33-1106): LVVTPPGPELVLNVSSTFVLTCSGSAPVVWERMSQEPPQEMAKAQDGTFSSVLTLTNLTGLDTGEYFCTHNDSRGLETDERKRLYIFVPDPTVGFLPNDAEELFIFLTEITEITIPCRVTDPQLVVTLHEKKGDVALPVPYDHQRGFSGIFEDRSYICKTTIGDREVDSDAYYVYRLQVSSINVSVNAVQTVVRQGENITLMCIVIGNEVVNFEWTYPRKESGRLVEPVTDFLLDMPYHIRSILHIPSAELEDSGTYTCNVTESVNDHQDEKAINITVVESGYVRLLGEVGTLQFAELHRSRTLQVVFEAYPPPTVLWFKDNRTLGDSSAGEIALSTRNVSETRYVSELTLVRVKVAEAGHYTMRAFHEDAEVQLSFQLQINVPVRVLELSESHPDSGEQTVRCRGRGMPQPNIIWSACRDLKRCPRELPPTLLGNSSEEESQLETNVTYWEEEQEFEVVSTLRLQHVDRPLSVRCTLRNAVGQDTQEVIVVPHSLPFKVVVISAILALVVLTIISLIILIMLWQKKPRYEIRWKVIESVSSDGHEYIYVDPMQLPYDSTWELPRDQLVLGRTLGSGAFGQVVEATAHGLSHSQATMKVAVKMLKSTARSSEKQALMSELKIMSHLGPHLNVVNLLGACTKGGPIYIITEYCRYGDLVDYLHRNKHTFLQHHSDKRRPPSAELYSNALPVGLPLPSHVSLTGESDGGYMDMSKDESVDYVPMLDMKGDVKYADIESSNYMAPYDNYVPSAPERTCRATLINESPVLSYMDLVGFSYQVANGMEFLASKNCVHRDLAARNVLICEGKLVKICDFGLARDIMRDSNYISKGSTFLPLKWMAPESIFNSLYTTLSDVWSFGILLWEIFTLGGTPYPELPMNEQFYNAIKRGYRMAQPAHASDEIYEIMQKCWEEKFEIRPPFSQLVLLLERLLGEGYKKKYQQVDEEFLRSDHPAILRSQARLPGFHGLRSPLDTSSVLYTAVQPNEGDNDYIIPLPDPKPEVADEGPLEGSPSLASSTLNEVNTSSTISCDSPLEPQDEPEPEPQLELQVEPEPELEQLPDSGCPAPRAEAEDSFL
CDK1, sequence (P06493 whole entry): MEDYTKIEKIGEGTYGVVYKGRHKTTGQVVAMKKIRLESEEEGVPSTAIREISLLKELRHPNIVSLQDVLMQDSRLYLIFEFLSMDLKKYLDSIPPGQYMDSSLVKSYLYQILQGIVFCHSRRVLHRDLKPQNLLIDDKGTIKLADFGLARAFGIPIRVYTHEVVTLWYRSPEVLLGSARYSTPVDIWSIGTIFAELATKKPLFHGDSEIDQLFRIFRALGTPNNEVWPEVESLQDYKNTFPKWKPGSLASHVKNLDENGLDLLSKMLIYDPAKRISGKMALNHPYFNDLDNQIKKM
CDK1, sequence (P14635 whole entry partner): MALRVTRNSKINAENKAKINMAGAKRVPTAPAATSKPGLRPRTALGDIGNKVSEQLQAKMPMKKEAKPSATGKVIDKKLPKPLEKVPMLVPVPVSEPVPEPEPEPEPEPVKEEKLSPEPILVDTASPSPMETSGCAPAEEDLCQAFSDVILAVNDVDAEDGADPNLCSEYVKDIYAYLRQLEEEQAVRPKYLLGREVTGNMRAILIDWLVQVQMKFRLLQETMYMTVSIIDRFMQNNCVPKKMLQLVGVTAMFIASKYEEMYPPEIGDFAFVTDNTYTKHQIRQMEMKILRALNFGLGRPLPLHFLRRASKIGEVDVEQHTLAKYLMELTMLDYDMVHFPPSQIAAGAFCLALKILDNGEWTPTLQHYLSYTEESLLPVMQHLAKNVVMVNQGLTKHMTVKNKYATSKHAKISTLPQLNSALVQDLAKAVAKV
BTK, sequence (Q06187 whole entry): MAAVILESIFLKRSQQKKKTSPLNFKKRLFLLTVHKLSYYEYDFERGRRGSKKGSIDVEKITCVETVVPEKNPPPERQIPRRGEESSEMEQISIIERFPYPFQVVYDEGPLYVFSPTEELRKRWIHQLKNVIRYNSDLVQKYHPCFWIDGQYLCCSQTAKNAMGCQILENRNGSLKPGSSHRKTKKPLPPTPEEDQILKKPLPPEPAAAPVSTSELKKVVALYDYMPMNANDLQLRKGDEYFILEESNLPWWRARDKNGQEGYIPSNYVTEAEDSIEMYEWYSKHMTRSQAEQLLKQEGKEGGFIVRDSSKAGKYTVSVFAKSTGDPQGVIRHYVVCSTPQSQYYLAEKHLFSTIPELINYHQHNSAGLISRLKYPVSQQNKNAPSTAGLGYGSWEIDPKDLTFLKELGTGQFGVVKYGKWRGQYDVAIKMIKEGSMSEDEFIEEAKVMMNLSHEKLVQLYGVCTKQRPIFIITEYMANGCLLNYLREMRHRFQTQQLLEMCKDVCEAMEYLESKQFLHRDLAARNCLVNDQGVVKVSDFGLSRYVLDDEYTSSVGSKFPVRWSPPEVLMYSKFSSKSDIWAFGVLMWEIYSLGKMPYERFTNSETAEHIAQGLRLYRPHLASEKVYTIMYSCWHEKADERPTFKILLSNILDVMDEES
NTRK2, sequence (Q16620 32-822): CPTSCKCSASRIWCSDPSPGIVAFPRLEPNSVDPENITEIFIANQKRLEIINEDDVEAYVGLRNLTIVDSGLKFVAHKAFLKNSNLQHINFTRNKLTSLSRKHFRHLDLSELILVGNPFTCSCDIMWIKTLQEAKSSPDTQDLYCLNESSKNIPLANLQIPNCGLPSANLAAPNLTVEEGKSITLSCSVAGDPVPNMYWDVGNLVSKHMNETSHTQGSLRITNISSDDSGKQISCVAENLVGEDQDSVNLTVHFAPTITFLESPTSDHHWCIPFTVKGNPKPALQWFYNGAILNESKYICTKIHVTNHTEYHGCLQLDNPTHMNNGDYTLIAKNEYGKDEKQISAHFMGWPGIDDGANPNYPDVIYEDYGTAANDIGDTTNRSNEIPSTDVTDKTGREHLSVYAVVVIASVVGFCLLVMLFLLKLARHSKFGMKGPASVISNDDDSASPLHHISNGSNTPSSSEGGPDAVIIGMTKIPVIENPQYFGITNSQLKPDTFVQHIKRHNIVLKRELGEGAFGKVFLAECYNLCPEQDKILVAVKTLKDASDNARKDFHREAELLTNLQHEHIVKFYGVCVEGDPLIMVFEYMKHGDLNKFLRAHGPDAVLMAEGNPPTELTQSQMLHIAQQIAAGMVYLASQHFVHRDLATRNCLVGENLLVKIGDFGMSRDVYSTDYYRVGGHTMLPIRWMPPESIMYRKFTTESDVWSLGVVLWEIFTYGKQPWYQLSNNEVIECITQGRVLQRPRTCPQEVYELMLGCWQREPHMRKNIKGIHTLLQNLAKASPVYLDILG
ABL1, sequence (P00519 whole entry): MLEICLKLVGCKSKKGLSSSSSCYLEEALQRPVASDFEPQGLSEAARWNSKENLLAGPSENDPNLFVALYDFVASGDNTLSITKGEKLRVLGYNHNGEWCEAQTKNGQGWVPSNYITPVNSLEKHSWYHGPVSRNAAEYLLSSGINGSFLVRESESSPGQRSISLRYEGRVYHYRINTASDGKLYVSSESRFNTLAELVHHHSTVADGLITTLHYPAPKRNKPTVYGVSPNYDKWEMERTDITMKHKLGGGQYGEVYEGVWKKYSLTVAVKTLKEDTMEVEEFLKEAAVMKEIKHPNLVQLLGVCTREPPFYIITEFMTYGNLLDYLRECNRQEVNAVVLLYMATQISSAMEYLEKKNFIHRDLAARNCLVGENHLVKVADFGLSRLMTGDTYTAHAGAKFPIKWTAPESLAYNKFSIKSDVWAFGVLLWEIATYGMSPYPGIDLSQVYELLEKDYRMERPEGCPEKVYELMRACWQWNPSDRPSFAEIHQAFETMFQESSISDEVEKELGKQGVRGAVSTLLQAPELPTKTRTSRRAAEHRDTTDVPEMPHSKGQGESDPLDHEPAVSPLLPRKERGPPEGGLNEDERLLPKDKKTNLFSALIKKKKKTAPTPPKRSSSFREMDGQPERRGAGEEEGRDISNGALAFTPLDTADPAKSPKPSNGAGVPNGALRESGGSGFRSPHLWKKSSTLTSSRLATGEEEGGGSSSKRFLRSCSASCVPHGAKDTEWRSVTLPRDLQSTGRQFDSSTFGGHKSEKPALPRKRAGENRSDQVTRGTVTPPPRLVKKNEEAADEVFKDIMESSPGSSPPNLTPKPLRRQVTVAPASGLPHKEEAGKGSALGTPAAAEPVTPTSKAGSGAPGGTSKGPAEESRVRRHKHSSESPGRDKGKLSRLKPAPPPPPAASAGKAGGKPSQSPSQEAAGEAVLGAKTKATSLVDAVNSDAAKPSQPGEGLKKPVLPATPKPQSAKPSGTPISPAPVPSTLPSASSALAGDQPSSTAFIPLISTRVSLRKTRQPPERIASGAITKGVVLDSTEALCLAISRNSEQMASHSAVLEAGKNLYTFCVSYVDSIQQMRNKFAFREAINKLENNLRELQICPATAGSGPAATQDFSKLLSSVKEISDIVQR

IC50 (BTK): > 10 µM
IC50 (MET): > 10 µM
IC50 (LTK): > 10 µM
IC50 (ABL1): > 10 µM
IC50 (PDGFRB): > 10 µM
IC50 (NTRK2): > 10 µM
IC50 (CDK1): > 10 µM
IC50 (LSD2): > 5 µM
IC50 (MV-4-11 cells): 0.16 ± 0.01 µM
IC50 (RPMI-8226 cells): > 100 µM
SMILES: O=S(=O)(c1ccc(C(O)CO)c(C(F)(F)F)c1)N1CCc2cc(C3CC3NCC3CCNCC3)ccc21 (stereo not shown) [LTM-1]
